Measured values reported in patent publication EP2271935B1, “METHOD AND KIT FOR THE EX VIVO EVALUATION OF THE RESPONSE OF A TUMOR TO CONDITIONS TO BE TESTED” (Universität Leipzig, priority 2008, dated 2009).
Where two headings read alike, the source gives them in different places.

System: epithelial cell line KB (DSMZ ACC 136)
Assay: MTT assay of proliferation under varied riboflavin content and light exposure
Format: cell-based, human
From the text: To address this question, three media, a) the RPMI 1640 without riboflavin and phenol red that is used in the method according to the invention and was manufactured according to our specifications by Biochrom, as well as two different RPMI 1640 charges purchased from Invitrogen which were each containing 532 nmol/L riboflavin, b) a phenol red-free (Gibco 11835), and c) a conventional RPMI 1640 (Gibco 21875) with 13.284 µmol/L phenol red. All media were supplemented with 2 mmol/L L-alanyl-1-glutamine as stabilized glutamine source (Biochrom K0302 Lot 0755 S) and the same amount of 10% (v/v) of heat-inactivated fetal calf serum (FCS) that was purchased from Invitrogen (Lot 41Q7554K) with a yield of 198 nmol/L riboflavin. […] These medium concentrations define the riboflavin concentrations in controls (see below).
In addition to the influences exerted by the different types of media alone, the riboflavin-dependent impact on the outcome of the docetaxel treatment was investigated. For this purpose 100 µl/well of docetaxel dilutions containing threefold the concentration indicated were added into the wells of microwell plates. The following seven docetaxel concentrations were tested: 19.38, 38.75, 77.5, 155, 310, 620, and 1,240 pmol/L.
To examine photoactivation-dependent riboflavin-mediated effects disturbing the outcome of ex-vivo chemoresponse-evaluation by conventional cell culture medium, and in particular in the absence of flavin-protecting experimental conditions, varying amounts of riboflavin were added. A stock solution of 200 µM (-)-riboflavin (CAS 83-68-5, Sigma R9504, FW=376.37 g/mol, purity >99%, cell culture tested) in phosphate buffered saline was diluted to adjust in each case the highest final concentration in culture (this means: after completion of the assay by addition of the other two components to the final assay volume of 300 µL) to exactly 10 µmol/L. Serial log10-dilutions were made from this concentration in each corresponding medium. These gave final concentrations in cell culture of 10.000, 1.018, 0.12, and 0.03 µmol/L in the case of medium a) (the medium according to the method of the invention), and concentrations of 10.000, 1.449, 0.594, and 0.508 µmol/L using media b) and c).
In general, each combination of riboflavin and docetaxel were tested in duplicate, and controls without additional riboflavin in quadruplicate for each experimental setting in the same 96-well plate. The experimental conditions were as follows: For each of the used media, two different plates were prepared simultaneously and either handled completely under flavin-protecting conditions (illumination only by sodium discharge lamps with an emission wavelength of 589 nm [i]), or in the same bench (Thermo MSC 12) with the installed light inside their working chamber switched on. The dilution of docetaxel and those of riboflavin in the particular medium were prepared for all four plates of each medium type prior to the other working steps under flavin-protecting conditions. Thus the administrations of these dilutions took about 20 min either under flavin-protecting conditions or illuminated conditions. After completed preparation of the plates that thereafter contained 200 µL of both diluted compounds, the plates were incubated 2 h in the incubator to allow for adjustment of the appropriate pH.
In between the stock culture of KB was harvested by trypsination of a 3-days stock culture (exponential growth phase). Stock cultures of KB cells always were grown without any antibiotic or antimycotic in phenol red- and riboflavin-free RPMI 1640 supplemented with 10% (v/v) FCS and were adapted to this medium for more than five passages. They were always handled at room temperature or warmer and were never exposed to light other than the light of a sodium discharge lamp with an emission wavelength of 589 nm for at least five passages. […]

CC(=O)O[C@@]12CO[C@@H]1C[C@H](O)[C@@]1(C)C(=O)[C@H](O)C3=C(C)[C@@H](OC(=O)[C@H](O)[C@@H](NC(=O)OC(C)(C)C)c4ccccc4)C[C@@](O)([C@@H](OC(=O)c4ccccc4)[C@H]21)C3(C)C [docetaxel]
IC50 (Homo sapiens, Epithelial cell, 0.5 h, Plate No. 06; Riboflavin 594 nmol/L; medium b), daylight 30 min, read-out: IC50 for docetaxel normalized to medium control of medium with same riboflavin content): 0.0838 nM
IC50 (Homo sapiens, Epithelial cell, 0.5 h, Plate No. 07; Riboflavin 499 nmol/L; medium b) phenol red-free RPMI 1640, bench lighting <30 min, read-out: IC50 for docetaxel with reference to control with same riboflavin content): 0.169 nM
IC50 (Homo sapiens, Epithelial cell, 0.5 h, Plate No. 07; Riboflavin 499 nmol/L; medium b), bench lighting <30 min, read-out: IC50 for docetaxel normalized to medium control of medium with same riboflavin content): 0.1 nM
IC50 (Homo sapiens, Epithelial cell, 0.5 h, Plate No. 07; Riboflavin 508 nmol/L; medium b) phenol red-free RPMI 1640, bench lighting <30 min, read-out: IC50 for docetaxel with reference to control with same riboflavin content): 0.124 nM
IC50 (Homo sapiens, Epithelial cell, 0.5 h, Plate No. 07; Riboflavin 508 nmol/L; medium b), bench lighting <30 min, read-out: IC50 for docetaxel normalized to medium control of medium with same riboflavin content): 0.0735 nM
IC50 (Homo sapiens, Epithelial cell, 0.5 h, Plate No. 07; Riboflavin 594 nmol/L; medium b) phenol red-free RPMI 1640, bench lighting <30 min, read-out: IC50 for docetaxel with reference to control with same riboflavin content): 0.172 nM
IC50 (Homo sapiens, Epithelial cell, 0.5 h, Plate No. 07; Riboflavin 594 nmol/L; medium b), bench lighting <30 min, read-out: IC50 for docetaxel normalized to medium control of medium with same riboflavin content): 0.102 nM
IC50 (Homo sapiens, Epithelial cell, 0.5 h, Plate No. 07; Riboflavin 1449 nmol/L; medium b) phenol red-free RPMI 1640, bench lighting <30 min, read-out: IC50 for docetaxel with reference to control with same riboflavin content): 0.128 nM
IC50 (Homo sapiens, Epithelial cell, 0.5 h, Plate No. 07; Riboflavin 1449 nmol/L; medium b), bench lighting <30 min, read-out: IC50 for docetaxel normalized to medium control of medium with same riboflavin content): 0.0759 nM
IC50 (Homo sapiens, Epithelial cell, 0.5 h, Plate No. 07; Riboflavin 10000 nmol/L; medium b) phenol red-free RPMI 1640, bench lighting <30 min, read-out: IC50 for docetaxel with reference to control with same riboflavin content): 0.135 nM
IC50 (Homo sapiens, Epithelial cell, 0.5 h, Plate No. 07; Riboflavin 10000 nmol/L; medium b), bench lighting <30 min, read-out: IC50 for docetaxel normalized to medium control of medium with same riboflavin content): 0.0801 nM
IC50 (Homo sapiens, Epithelial cell, 0.5 h, Plate No. 08; Riboflavin 499 nmol/L; medium b) phenol red-free RPMI 1640, bench lighting <30 min, daylight 30 min, read-out: IC50 for docetaxel with reference to control with same riboflavin content): 0.181 nM
IC50 (Homo sapiens, Epithelial cell, 0.5 h, Plate No. 08; Riboflavin 499 nmol/L; medium b), bench lighting <30 min, daylight 30 min, read-out: IC50 for docetaxel normalized to medium control of medium with same riboflavin content): 0.1 nM
IC50 (Homo sapiens, Epithelial cell, 0.5 h, Plate No. 08; Riboflavin 508 nmol/L; medium b) phenol red-free RPMI 1640, bench lighting <30 min, daylight 30 min, read-out: IC50 for docetaxel with reference to control with same riboflavin content): 0.186 nM
IC50 (Homo sapiens, Epithelial cell, 0.5 h, Plate No. 08; Riboflavin 508 nmol/L; medium b), bench lighting <30 min, daylight 30 min, read-out: IC50 for docetaxel normalized to medium control of medium with same riboflavin content): 0.103 nM
IC50 (Homo sapiens, Epithelial cell, 0.5 h, Plate No. 08; Riboflavin 594 nmol/L; medium b) phenol red-free RPMI 1640, bench lighting <30 min, daylight 30 min, read-out: IC50 for docetaxel with reference to control with same riboflavin content): 0.208 nM
IC50 (Homo sapiens, Epithelial cell, 0.5 h, Plate No. 08; Riboflavin 594 nmol/L; medium b), bench lighting <30 min, daylight 30 min, read-out: IC50 for docetaxel normalized to medium control of medium with same riboflavin content): 0.115 nM
IC50 (Homo sapiens, Epithelial cell, 0.5 h, Plate No. 10; Riboflavin 499 nmol/L; medium c) conventional RPMI 1640 with phenol red, daylight 30 min, read-out: IC50 for docetaxel with reference to control with same riboflavin content): 0.421 nM
IC50 (Homo sapiens, Epithelial cell, 0.5 h, Plate No. 10; Riboflavin 499 nmol/L; medium c), daylight 30 min, read-out: IC50 for docetaxel normalized to medium control of medium with same riboflavin content): 0.1 nM
IC50 (Homo sapiens, Epithelial cell, 0.5 h, Plate No. 10; Riboflavin 508 nmol/L; medium c) conventional RPMI 1640 with phenol red, daylight 30 min, read-out: IC50 for docetaxel with reference to control with same riboflavin content): 0.337 nM
IC50 (Homo sapiens, Epithelial cell, 0.5 h, Plate No. 10; Riboflavin 508 nmol/L; medium c), daylight 30 min, read-out: IC50 for docetaxel normalized to medium control of medium with same riboflavin content): 0.0801 nM
IC50 (Homo sapiens, Epithelial cell, 0.5 h, Plate No. 10; Riboflavin 594 nmol/L; medium c) conventional RPMI 1640 with phenol red, daylight 30 min, read-out: IC50 for docetaxel with reference to control with same riboflavin content): 0.264 nM
IC50 (Homo sapiens, Epithelial cell, 0.5 h, Plate No. 10; Riboflavin 594 nmol/L; medium c), daylight 30 min, read-out: IC50 for docetaxel normalized to medium control of medium with same riboflavin content): 0.0627 nM
IC50 (Homo sapiens, Epithelial cell, 0.5 h, Plate No. 10; Riboflavin 1449 nmol/L; medium c) conventional RPMI 1640 with phenol red, daylight 30 min, read-out: IC50 for docetaxel with reference to control with same riboflavin content): 0.136 nM
IC50 (Homo sapiens, Epithelial cell, 0.5 h, Plate No. 10; Riboflavin 1449 nmol/L; medium c), daylight 30 min, read-out: IC50 for docetaxel normalized to medium control of medium with same riboflavin content): 0.0323 nM
IC50 (Homo sapiens, Epithelial cell, 0.5 h, Plate No. 11; Riboflavin 499 nmol/L; medium c) conventional RPMI 1640 with phenol red, bench lighting <30 min, read-out: IC50 for docetaxel with reference to control with same riboflavin content): 0.225 nM
